Values after ≈ are worked out from the molar mass of the structure shown.
Assays:
Test in all cases: minimal inhibitory concentration (MIC), agar streak test
Format in all cases: cell-based
[1] = tested on: B. subtilis ATCC 6633; settings: Bacillus subtilis, ATCC6633, heart infusion agar, 37° C., 20 hours, 10^8 viable cells per ml
Protocol: (§1) One loopful of an overnight culture of each test strain in Trypticase-soy broth (10^8 viable cells per ml.) was streaked on heart infusion agar (HI-agar) containing graded concentrations of antibiotics, and the minimal inhibitory concentration (MIC) was expressed in terms of μg/ml after incubation at 37° C. for 20 hours.

[2] = tested on: Ps. aeruginosa 2; settings: Pseudomonas aeruginosa, heart infusion agar, 37° C., 20 hours, 10^8 viable cells per ml
Protocol: as §1

[3] = tested on: S. marcescens 35; settings: Serratia marcescens, heart infusion agar, 37° C., 20 hours, 10^8 viable cells per ml
Protocol: as §1

SMILES	MIC [1] [µg/mL]	MIC [2] [µg/mL]	MIC [3] [µg/mL]
CCO/N=C(\C(=O)NC1C(=O)N2C(C(=O)[O-])=C(C[n+]3cc(C)cc(C)c3)CSC12)c1nsc(N)n1 (stereo not drawn) [(4)]	1.56 (≈ 3.01 µM)	6.25 (≈ 12.1 µM)	3.13 (≈ 6.05 µM)
CCO/N=C(\C(=O)NC1C(=O)N2C(C(=O)[O-])=C(C[n+]3cccc(Cl)c3)CSC12)c1nsc(N)n1 (stereo not drawn) [(3)]	0.78 (≈ 1.49 µM)	6.25 (≈ 11.9 µM)	3.13 (≈ 5.97 µM)

Next, values leading:

MIC [1] [µg/mL]	MIC [2] [µg/mL]	MIC [3] [µg/mL]	SMILES
0.78 (≈ 1.5 µM)	6.25 (≈ 12 µM)	3.13 (≈ 6.02 µM)	CCO/N=C(\C(=O)NC1C(=O)N2C(C(=O)[O-])=C(C[n+]3cccc(CO)c3)CSC12)c1nsc(N)n1 (stereo not drawn) [(1)]
0.78 (≈ 1.42 µM)	12.5 (≈ 22.8 µM)	1.56 (≈ 2.85 µM)	CCO/N=C(\C(=O)NC1C(=O)N2C(C(=O)[O-])=C(C[n+]3ccc(CCCO)cc3)CSC12)c1nsc(N)n1 (stereo not drawn) [(5)]
0.78 (≈ 1.5 µM)	12.5 (≈ 24.1 µM)	1.56 (≈ 3 µM)	CCO/N=C(\C(=O)NC1C(=O)N2C(C(=O)[O-])=C(C[n+]3ccc(CO)cc3)CSC12)c1nsc(N)n1 (stereo not drawn) [(2)]

From US4457928A, “Cephem compounds” (Fujisawa Pharmaceutical Co., Ltd., priority 1980, dated 1984)
